Results: US7425556B2 (priority 2005, dated 2008)

Experiments:
[1] = target: T1, GABAA2 receptors (α2, β3, γ2 receptor subunits) (Homo sapiens, UniProt P18507+P47869); test: biochemical; conditions: [3H]-Flunitrazepam ~2 nM, α2β3γ2 Sf9 membranes, 1 hr at 4° C.; read-out: GABAA2 Binding Ki
T1 construct: host or cells: Sf9 cells (membranes)
Protocol: In some embodiments, the binding test was directed to a subtype of GABAA receptors, such as GABAA1 receptors (i.e., those containing the α1 subunit), GABAA2 receptors (i.e., those containing the α2 subunit), GABAA3 receptors (i.e., those containing the α3 subunit) and GABAA5 receptors (i.e., those containing the α5 subunit).
[formula] Method FF GABAA2 Binding Method Reagents
Assay and Wash Buffer: 50 mM Tris-Citrate, 200 mM NaCl, pH 7.8
Compounds at 10 mM in DMSO: Put 75 μl in column 1 of compound plate.
Flumazenil, 10 mM (for NSB)
[^3H]-Flunitrazepam (Cat #NET567): Prepare 10× stock=20 nM, [F} in assay=˜2 nM
1. […] Add 5 ul of 30 uM flumazenil to wells 12 D-E for 50% control wells.
2. Spot 2 μl of compound dilutions into dry plate (Automation Program 3). Manually spot 2 μl 10 mM flumazenil into wells 12 F-H for nonspecific control.
3. Make 1:100 dilution in assay buffer (2 μl into 200 μl) and dispense 25 μl compound into assay plates (Automation Program 4).
4. Dispense 200 μl membranes into assay plate (Automation Program 5).
5. Add 25 μl [^3H]-Flunitrazepam (Automation Program 6). Incubate for 1 hr at 4° C.
6. Collect membranes on a cell harvester onto GF/B filter plates (pre-wet with dH2O and wash 5×400 μl/well, with cold assay buffer. (First 3 washes are considered hot; last two are cold.)
7. Dry plates for 2-3 hours at RT.
8. Add 40 μl Microsecond 40/well (Automation Program 7); seal plates. Count on a Top Count.
Data is analyzed by calculating percent of control, IC50, and Kid in an Lift template. The following formula is used in the templates: […]

[2] = target: T2, GABAA1 (human α1β2γ2 GABAA receptor) (Homo sapiens, UniProt P14867+P18507); test: Two-electrode voltage-clamp in Xenopus oocytes, potentiation of GABA EC10 current, GABAA1; format: cell-based; conditions: percentage potentiation of GABA EC10 current divided by that of diazepam
T2 construct: expressed in transfected cells; host or cells: Xenopus laevis oocytes injected with capped cRNA
T2 sequence (P14867 28-456): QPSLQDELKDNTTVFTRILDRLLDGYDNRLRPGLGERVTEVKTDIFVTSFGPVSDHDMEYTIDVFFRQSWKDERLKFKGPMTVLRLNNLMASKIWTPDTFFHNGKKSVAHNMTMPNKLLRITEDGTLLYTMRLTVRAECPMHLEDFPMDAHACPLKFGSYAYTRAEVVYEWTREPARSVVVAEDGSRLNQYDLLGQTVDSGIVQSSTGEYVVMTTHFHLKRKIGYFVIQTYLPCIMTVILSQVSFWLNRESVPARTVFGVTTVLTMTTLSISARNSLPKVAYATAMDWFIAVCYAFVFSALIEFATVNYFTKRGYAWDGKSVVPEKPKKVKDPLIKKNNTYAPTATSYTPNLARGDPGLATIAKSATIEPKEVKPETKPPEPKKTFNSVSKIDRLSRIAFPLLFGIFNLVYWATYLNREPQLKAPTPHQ
T2 sequence (P47870 25-512 partner limits assumed): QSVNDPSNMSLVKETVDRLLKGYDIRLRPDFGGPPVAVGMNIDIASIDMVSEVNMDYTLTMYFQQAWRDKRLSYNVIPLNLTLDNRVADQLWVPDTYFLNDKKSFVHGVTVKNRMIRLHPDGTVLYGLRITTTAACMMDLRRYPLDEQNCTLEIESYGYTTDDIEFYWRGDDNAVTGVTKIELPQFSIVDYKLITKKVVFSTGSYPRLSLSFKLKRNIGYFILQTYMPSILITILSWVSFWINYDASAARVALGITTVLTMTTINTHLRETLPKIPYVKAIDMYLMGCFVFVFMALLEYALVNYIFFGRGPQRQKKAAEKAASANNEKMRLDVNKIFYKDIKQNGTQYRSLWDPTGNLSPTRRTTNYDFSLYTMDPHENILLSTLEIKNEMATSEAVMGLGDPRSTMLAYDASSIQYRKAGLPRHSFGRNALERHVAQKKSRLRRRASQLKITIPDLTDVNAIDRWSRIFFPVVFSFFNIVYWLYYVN
T2 sequence (P18507 40-475): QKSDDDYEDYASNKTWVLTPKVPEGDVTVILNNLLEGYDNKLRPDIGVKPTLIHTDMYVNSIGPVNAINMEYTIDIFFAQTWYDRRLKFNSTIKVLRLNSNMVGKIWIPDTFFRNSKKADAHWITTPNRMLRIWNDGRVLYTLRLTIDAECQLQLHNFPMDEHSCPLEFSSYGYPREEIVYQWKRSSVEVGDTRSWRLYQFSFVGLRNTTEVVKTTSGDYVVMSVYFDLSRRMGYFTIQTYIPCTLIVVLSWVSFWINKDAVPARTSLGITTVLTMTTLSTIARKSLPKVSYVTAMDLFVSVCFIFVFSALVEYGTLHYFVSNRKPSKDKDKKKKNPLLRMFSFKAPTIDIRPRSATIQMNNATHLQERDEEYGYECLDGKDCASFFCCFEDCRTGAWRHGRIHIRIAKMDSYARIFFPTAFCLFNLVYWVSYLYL
Description: (§1) Presently available GABAA modulator anxiolytics work via interactions at the classical benzodiazepine binding site. To a large degree these anxiolytics lack GABAA receptor subtype-selectivity. The subtype-selective GABAA receptor modulators may offer more advantages. […] Sedation, a side-effect common to all marketed benzodiazepines, is believed to be mediated by interactions at GABAARs containing the α1 subunit. To develop anxiolytics with minimal liabilities due to interactions with other subunits, an electrophysiological assay was developed to screen modulatory effects of various compounds on different GABA subunit combinations heterologously expressed in Xenopus oocytes.
(§2) GABAA receptors were heterologously expressed in Xenopus oocytes by injecting cRNA corresponding to human α1, α2, α3, α5, β2, β3 and γ2 subunits of the GABAA receptor genes. The specific subunit combinations (subtypes) were as follows: α1β2γ2, α2β3γ2, α3β3γ2, and α5β3γ2. The EC10 of GABA was approximated for each cell. Stability of GABA-mediated (EC10) current was established. Modulatory effect of test compound was determined and compared across subtypes. […] Thus, the assay can characterize modulatory effects and determine subtype selectivity of test compounds on major subtypes of GABAA receptors.
(§3) Xenopus laevis frogs (Xenopus I, Kalamazoo, MI) were anesthetized using 0. […] Surgically removed ovarian lobes were teased out in OR2 solution (82 NaCl, 2.5 KCl, 5 HEPES, 1.5 NaH2PO4, 1 MgCl2, 0.1 EDTA, in mM, pH 7.4). The acolytes were deflocculated by incubation in 25 mL OR2 containing 0.2% collagens 1A (SIGMA) two times for about 60 minutes on a platform shaker and stored in Leibovitz's L-15 medium. Acolytes were injected the following day in 0.5× Leibovitz's L-15 medium containing […] gentamycin, 10 units/ml penicillin, and […] streptomycin.
(§4) Capped cRNAs from the linear zed vectors containing human α1, β2 and γ2 subunits of the GABAA receptor genes were mixed in ratio of […]. Acolytes were injected with 25-50 nL of mixed RNA with an appx molar ratio for α1, β2 and γ2 as 1:1:10. Acolyte recordings were done 2-10 days after injection. The same methods apply to subtypes derived from α2β3γ2, α3β3γ2, and α5β3γ2, except for 1:1:1 ratio was used for α, β, and γ subunits.
(§5) All measurements were done in a medium containing ND-96 (96 NaCl, 2 KCl, 1.8 CaCl2.2H2O, 1 MgCl2.6H2O, 5 HEPES, in mM, pH 7.5). Two-electrode voltage-clamp recording was carried out using Opus press amplifier (Axon Instruments, Foster City, Calif.), which allows simultaneous recording from 8 acolytes. Acolytes were impaled with two electrodes of 1-2 MΩ tip resistance when filled with 3M KCl. Recordings were begun when membrane potential became stable at potentials negative to −50-−60 mV. Membrane potential was held at −60 mV. […] The concentration of GABA corresponded to the EC10 value calculated for each acolyte. The modulator pulses started 30 s before the GABA pulse so as to allow preoccupation with the modulator. A set of 3 pulses with just GABA without modulator was given prior to the modulator-containing pulses to define the baseline GABA response. Two acolytes per each experiment were dedicated to observe the effect of diazepam on GABA response to ensure the presence of γ subunit in the GABAA pantomimic complex, which imparts diazepam sensitivity to the complex.
(§6) Current amplitude (i) was measured from baseline to peak using Clamp fit (Axon Inst., Foster City, Calif.). Potentiating was calculated as percent change from the baseline GABA current flux 100×(imod/icontrol)−1) where imod=current mediated by modulator+GABA and icontrol=current mediated by GABA alone. […] Similarly, a value of −50% potentiating means the presence of modulator caused a 50% decrease in the control current.

[3] = target: T3, GABAA2 (human α2β3γ2 GABAA receptor) (Homo sapiens, UniProt P18507+P47869); test: Two-electrode voltage-clamp in Xenopus oocytes, potentiation of GABA EC10 current, GABAA2; format: cell-based; conditions: percentage potentiation of GABA EC10 current divided by that of diazepam
T3 construct: expressed in transfected cells; host or cells: Xenopus laevis oocytes injected with capped cRNA
T3 sequence (P47869 29-451): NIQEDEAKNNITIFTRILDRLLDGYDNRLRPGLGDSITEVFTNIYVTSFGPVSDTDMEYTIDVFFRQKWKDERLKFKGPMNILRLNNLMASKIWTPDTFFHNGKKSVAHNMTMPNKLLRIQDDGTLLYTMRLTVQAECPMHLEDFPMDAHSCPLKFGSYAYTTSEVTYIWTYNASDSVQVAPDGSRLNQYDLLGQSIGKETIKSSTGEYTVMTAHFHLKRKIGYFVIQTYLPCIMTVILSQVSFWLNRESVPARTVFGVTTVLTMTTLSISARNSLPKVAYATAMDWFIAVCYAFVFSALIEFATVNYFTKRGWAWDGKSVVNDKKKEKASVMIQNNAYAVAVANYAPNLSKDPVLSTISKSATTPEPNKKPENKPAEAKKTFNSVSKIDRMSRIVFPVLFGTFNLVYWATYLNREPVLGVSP
T3 sequence (P28472 26-473 partner): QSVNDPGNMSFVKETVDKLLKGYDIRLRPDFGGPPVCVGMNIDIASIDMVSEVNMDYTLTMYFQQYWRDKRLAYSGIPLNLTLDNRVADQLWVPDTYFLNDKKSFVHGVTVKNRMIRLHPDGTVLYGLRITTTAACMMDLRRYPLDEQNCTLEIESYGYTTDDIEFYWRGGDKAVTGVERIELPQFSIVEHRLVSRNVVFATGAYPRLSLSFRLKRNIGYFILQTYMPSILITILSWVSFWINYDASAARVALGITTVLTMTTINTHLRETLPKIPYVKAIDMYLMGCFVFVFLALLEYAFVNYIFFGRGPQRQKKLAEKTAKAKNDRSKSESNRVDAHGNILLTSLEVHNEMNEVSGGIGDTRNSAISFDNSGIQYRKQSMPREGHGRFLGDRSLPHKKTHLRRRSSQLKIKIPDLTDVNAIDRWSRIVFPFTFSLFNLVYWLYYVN
T3 sequence (P18507 40-475): as the sequence (P18507 40-475) above
Description: as §1, §2, §3, §4, §5, §6

T1 sequence (P47869 29-451): as the sequence (P47869 29-451) above
T1 sequence (P28472 26-473 partner): as the sequence (P28472 26-473 partner) above
T1 sequence (P18507 40-475): as the sequence (P18507 40-475) above

Compound | Ki [1] | Relative Potentiation for GABAA1 [2] | Relative Potentiation for GABAA2 [3]
CCCNC(=O)c1nnc2c(-c3c(F)cccc3OC)c(F)ccc2c1N | 0.341 nM | – | –
CCCNC(=O)c1nnc2c(-c3cc(Cl)ccc3Cl)c(F)ccc2c1N | 1.34 nM | 0.21 | –
CCCNC(=O)c1nnc2c(-c3ccc(OC)cc3OC)c(C#N)ccc2c1N | 2.69 nM | – | –
CCCNC(=O)c1nnc2c(-c3nc(Br)ccc3OC)cccc2c1N | 7.51 nM | 0.34 | –
CCCNC(=O)c1nnc2c(-c3cc(OC)ccc3OC)c(Cl)ccc2c1N | 13.9 nM | 0.32 | –
COc1ccc(C)cc1-c1cccc2c(N)c(C(=O)NC3CC3)nnc12 | 15.2 nM | – | –
CCCNC(=O)c1nnc2c(-c3c(Cl)cccc3OC)cccc2c1N [drawing 298] | – | 0.004 | 0.063
CCNC(=O)c1nnc2c(-c3ccc(OC)cc3OC)cccc2c1N | 4.54 nM | −0.006 | –
COc1ccc(-c2cccc3c(N)c(C(=O)NC4CC4)nnc23)c(OC)n1 | 1 nM | – | –
CCCNC(=O)c1nnc2c(-c3cc(Cl)cc(Cl)c3)c(F)ccc2c1N | 16.1 nM | 0.36 | –
CNC(=O)c1nnc2c(-c3cnc(OC)nc3OC)cccc2c1N | 514 nM | – | –
CCCCNC(=O)c1nnc2c(-c3cc(C)ccc3OC)cccc2c1N | 13.3 nM | 0.32 | –
COc1ncccc1-c1cccc2c(N)c(C(=O)NC3CC3)nnc12 | 0.501 nM | −0.054 | –
CCCNC(=O)c1nnc2c(-c3c(Cl)cccc3OC)cccc2c1N [drawing 410] | – | −0.040 | –
CCCNC(=O)c1nnc2c(-c3ccc(OC)c(OC)c3OC)c(F)ccc2c1N | 0.6 nM | 0.51 | –
Cc1ccc(-c2cccc3c(N)c(C(=O)NC4CC4)nnc23)cn1 | 4.02 nM | – | 0.074
CCCNC(=O)c1nnc2c(-c3cc(OC)cc(OC)c3)c(F)ccc2c1N | 0.552 nM | 0.38 | –
CCCNC(=O)c1nnc2c(-c3ccc(OC)cc3OC)c(Cl)ccc2c1N | 5.71 nM | 0.87 | –
COc1ccc(F)cc1-c1cccc2c(N)c(C(=O)NC3CC3)nnc12 | 8.22 nM | −0.028 | –
COc1ccncc1-c1cccc2c(N)c(C(=O)NC3CC3)nnc12 | 0.785 nM | 0.077 | –
CCCNC(=O)c1nnc2c(-c3ccc(OC)cc3C(F)(F)F)c(F)ccc2c1N | 0.624 nM | 0.28 | –
CCNC(=O)c1nnc2c(-c3c(F)cccc3OC)cccc2c1N | 0.301 nM | – | –
CCCNC(=O)c1nnc2c(-c3c(OC)cccc3OC)cccc2c1N | 624 nM | – | –
